Test results from article PMC10223356, “Tetrasubstituted Pyrrole Derivative Mimetics of Protein–Protein Interaction Hot-Spot Residues: A Promising Class of Anticancer Agents Targeting Melanoma Cells” (Molecules, 2023).
Values after ≈ are worked out from the molar mass of the structure shown.

Legend:
[1] = Solubility assay in PBS by UV light scattering (precipitation point); format: physicochemical; conditions: for solubility at 1 min: PBS (phosphate-buffered saline), aqueous buffer, kinetic from dmso stock, PBS solution pH = 7.4, 37 °C, mean ± SEM (n = 3)
Experimental: The solubility of all compounds was evaluated in a PBS solution (phosphate-buffered saline; Sigma-Aldrich, Merck KGaA, Darmstadt, Germany, pH = 7.4) by means of UV spectroscopy.
For each compound, the precipitation point was quantified measuring the increasing of the UV absorption of PBS in the range of 600–800 nm after successive additions of aliquots of a DMSO solution at specific concentration. Because of the absence of bands in the selected UV region, the increase in absorption is due to light scattering caused by the formation of particulate in the PBS. UV absorption data were graphically reported vs. μL of the added DMSO solution (x-axis), and the precipitation point was identified as the intersect point of the bilinear fitted curve. The x coordinate of the intersect point corresponded to the microlitres of DMSO added to PBS (1.4 mL) when the precipitation occurred, from which the concentration of the molecule in PBS at the precipitation point is readily calculated.
The solubility of each molecule in PBS was quantified measuring the UV scattering in the range of 600–800 nm (JASCO UV-530 spectrophotometer, equipped with ETC-505 T temperature controller). DMSO solutions of 1, 9a, 9b, 9c, 9d, 9e, 9f, ±10b, and nutlin-3a were used at a final concentration of 2.6 mM, whereas those of 9g, 9h, and 9i were used at 1.0 mM. A total of 1400 µL of degassed PBS was placed in a quartz cuvette (o.l. 0.5 cm), equilibrated 5 min at 37 °C, and then titrated by 7–10 successive additions of 0.5 µL or 0.3 µL from the DMSO solution. Each titration was performed without removing the cuvette from the UV cell and, after each addition, the solution was equilibrated 1 min a 37 °C under gently stirring before the acquisition of the UV data. For each molecule, the solubility was expressed as the mean ± SEM (n = 3).

[2] = system: human epithelial melanoma A375 cells; assay: Cell survival index (MTT + cell count) bioscreen, A375; format: cell-based; conditions: for IC50: A-375, human melanoma cell line, 48 h of incubation, cell survival index, mean ± SEM (n = 30); for SI (selectivity index): SI = IC50 L6/IC50 A375
Experimental: (§1) Cell growth inhibition activity of compounds 1, 9a–i, 10a,b, and the positive control nutlin-3a was evaluated following 48 h of incubation with increasing concentrations of the compounds (from 1.5 to 25 µM) in human cancer (A375 and HCT-116) and healthy (L6) cell lines. […] The evaluation of the “cell survival index” show a typical concentration-dependent sigmoid trend, achieving IC50 values in the low micromolar range (Figure S2).
(§2) Human epithelial melanoma A375 cells, human colorectal carcinoma HCT-116 cells, and normal rat L6 myoblast were grown in DMEM (Invitrogen, Paisley, UK) supplemented with 10% fetal bovine serum (FBS, Cambrex, Verviers, Belgium), L-glutamine (2 mM, Sigma, Milan, Italy), penicillin (100 units/mL, Sigma), and streptomycin (100 μg/mL, Sigma) and cultured in a humidified 5% carbon dioxide atmosphere at 37 °C, according to ATCC recommendations. A375 and HCT-116 were used as preclinical human cancer models in vitro, while rat L6 were used as control healthy cells.
(§3) The antiproliferative activity of 1, 9a–i, and 10a,b was investigated through the estimation of a “cell survival index”, arising from the combination of cell viability evaluation with cell counting, as previously reported. The cell survival index is calculated as the arithmetic mean between the percentage values derived from the MTT assay and the automated cell count. Cells were inoculated in 96-microwell culture plates at a density of 10^4 cells/well and allowed to grow for 24 h. The medium was then replaced with fresh medium and cells were treated for an additional 48 h with a range of concentrations (from 1.5 to 25 μM) of 1, 9a–i, and 10a,b. Using the same experimental procedure, cell cultures were also incubated with DMSO as negative controls (vehicle), as well as with cisplatin (cDDP) and nutlin-3a as positive controls for cytotoxic and antiproliferative effects, respectively. Cell viability was evaluated using the MTT assay procedure. Cell number was determined by TC20 automated cell counter (Bio-Rad, Milan, Italy), providing an accurate and reproducible total count of cells and a live/dead ratio in one step by a specific dye (trypan blue) exclusion assay. The calculation of the concentration required to inhibit the net increase in the cell number and viability by 50% (IC50) is based on plots of data (n = 6 for each experiment) and repeated five times (total n = 30). IC50 values were calculated from a dose–response curve by nonlinear regression using a curve-fitting program, GraphPad Prism 5.0, and are expressed as mean values ± SEM (n = 30) of five independent experiments.

normal rat L6 myoblast = assay: Cell survival index (MTT + cell count) bioscreen, L6; format: cell-based; conditions: healthy rat myoblast cell line, 48 h of incubation, mean ± SEM (n = 30), read-out: L6 IC50
Experimental: as §1, §2, §3

[3] = system: human colorectal carcinoma HCT-116 cells; assay: Cell survival index (MTT + cell count) bioscreen, HCT-116; format: cell-based; conditions: HCT-116, 48 h, human colon cancer cell line, 48 h of incubation, mean ± SEM (n = 30)
Experimental: as §1, §2, §3

[4] = DMSO solution 2.6 mM added to 1400 µL PBS
[5] = DMSO solution 1.0 mM added to 1400 µL PBS, Abs 640 nm

## Cc1ccc(Cn2c(C(=O)NCc3cccc(Cl)c3)cc(C(O)c3ccccc3)c2C)cc1 (racemic) [(±)10b, (±)N-(3-chlorobenzyl)-4-(hydroxy(phenyl)methyl)-5-methyl-1-(4-methylbenzyl)-1H-pyrrole-2-carboxamide]
[1]; [4]
  Volume of DMSO solution added to PBS at the precipitation point: 3,6 µL
[1]
  solubility at 1 min: 6.7 ± 0.6 µM (≈ 3.08 µg/mL)
[2]
  IC50: 15 ± 5 µM
  SI (selectivity index): 3.6
Normal rat L6 myoblast
  CC50: 54 ± 6 µM
[3]
  IC50: 25 ± 5 µM

## Cc1c(C(=O)c2ccccc2)cc(C(=O)NCc2cccc(Cl)c2)n1Cc1ccc(Cl)cc1 [compound 9a, 4-Benzoyl-N-(3-chlorobenzyl)-1-(4-chlorobenzyl)-5-methyl-1H-pyrrole-2-carboxamide]
[1]; [4]
  Volume of DMSO solution added to PBS at the precipitation point: 2,14 µL
[1]
  solubility at 1 min: 3.9 ± 0.1 µM (≈ 1.86 µg/mL)
[2]
  IC50: 18 ± 4 µM
  SI (selectivity index): 2.7
Normal rat L6 myoblast
  CC50: 48 ± 5 µM
[3]
  IC50: 36.4 ± 8 µM

## Cc1c(C(=O)c2ccccc2)cc(C(=O)NCc2ccc(Cl)cc2)n1Cc1ccc(Cl)cc1 [compound 9e, 4-Benzoyl-N,1-bis(4-chlorobenzyl)-5-methyl-1H-pyrrole-2-carboxamide]
[1]; [4]
  Volume of DMSO solution added to PBS at the precipitation point: 1,93 µL
[1]
  solubility at 1 min: 3.5 ± 0.3 µM (≈ 1.67 µg/mL)
[2]
  IC50: 23 ± 6 µM
  SI (selectivity index): 1.6
Normal rat L6 myoblast
  CC50: 38 ± 2 µM
[3]
  IC50: 34.6 ± 6 µM

## CC(=O)c1cc(C(=O)NCc2cccc(Br)c2)n(Cc2ccc(C)cc2)c1-c1ccccc1 [compound 9g, 4-acetyl-N-(3-bromobenzyl)-1-(4-methylbenzyl)-5-phenyl-1H-pyrrole-2-carboxamide]
[1]; [5]
  Volume of DMSO solution added to PBS at the precipitation point: 2,1 µL
[1]
  solubility at 1 min: 1.5 ± 0.2 µM (≈ 0.752 µg/mL)
[2]
  IC50: 18 ± 5 µM
  SI (selectivity index): 3.9
Normal rat L6 myoblast
  CC50: 71 ± 5 µM
[3]
  IC50: 34 ± 6 µM

## Cc1c(C(=O)c2ccccc2)cc(C(=O)NCc2cccc(C(F)(F)F)c2)n1Cc1ccccc1 [compound 9f, 4-Benzoyl-1-benzyl-5-methyl-N-(3-(trifluoromethyl)-benzyl)-1H-pyrrole-2-carboxamide]
[1]; [4]
  Volume of DMSO solution added to PBS at the precipitation point: 1,41 µL
[1]
  solubility at 1 min: 2.6 ± 0.1 µM (≈ 1.24 µg/mL)
[2]
  IC50: 27 ± 8 µM
  SI (selectivity index): 1.3
Normal rat L6 myoblast
  CC50: 35 ± 7 µM
[3]
  IC50: 28.4 ± 7 µM

## Cc1ccc(Cn2c(C(=O)NCc3cccc(Cl)c3)cc(C(=O)c3ccc(C)cc3)c2C)cc1 [compound 9h, N-(3-chlorobenzyl)-5-methyl-4-(4-methylbenzoyl)-1-(4-methylbenzyl)-1H-pyrrole-2-carboxamide]
[1]; [5]
  Volume of DMSO solution added to PBS at the precipitation point: 0.84 µL
[1]
  solubility at 1 min: < 1 µM
[2]
  IC50: 24 ± 6 µM
  SI (selectivity index): 1.7
Normal rat L6 myoblast
  CC50: 42 ± 7 µM
[3]
  IC50: 56.3 ± 15 µM

## COc1ccc(Cn2c(C(=O)NCc3cccc(Cl)c3)cc(C(=O)c3ccccc3)c2C)cc1 [compound 9b, 4-Benzoyl-N-(3-chlorobenzyl)-1-(4-methoxybenzyl)-5-methyl-1H-pyrrole-2-carboxamide]
[1]; [4]
  Volume of DMSO solution added to PBS at the precipitation point: 1,7 µL
[1]
  solubility at 1 min: 3.1 ± 0.2 µM (≈ 1.47 µg/mL)
[2]
  IC50: 24 ± 14 µM
  SI (selectivity index): 1.7
Normal rat L6 myoblast
  CC50: 40 ± 5 µM
[3]
  IC50: 46 ± 18 µM

## COc1ccc(C2=N[C@H](c3ccc(Cl)cc3)[C@H](c3ccc(Cl)cc3)N2C(=O)N2CCNC(=O)C2)c(OC(C)C)c1 [nutlin-3a, reference compound]
[1]
  solubility at 1 min: 2.4 ± 0.2 µM (≈ 1.4 µg/mL)
[2]
  IC50: 15 ± 3 µM
  SI (selectivity index): 1.2
Normal rat L6 myoblast
  CC50: 18 ± 4 µM
[3]
  IC50: 12.5 ± 5 µM

## COc1ccc(C(=O)c2cc(C(=O)NCc3cccc(Cl)c3)n(Cc3ccc(C)cc3)c2C)cc1 [compound 9i, N-(3-chlorobenzyl)-4-(4-methoxybenzoyl)-5-methyl-1-(4-methylbenzyl)-1H-pyrrole-2-carboxamide]
[1]; [5]
  Volume of DMSO solution added to PBS at the precipitation point: 1,0 µL
[1]
  solubility at 1 min: < 1 µM
[2]
  IC50: 16 ± 6 µM
  SI (selectivity index): 4.2
Normal rat L6 myoblast
  CC50: 66 ± 5 µM
[3]
  IC50: > 100 µM
